For three molecules, IC50 results are on record in ChEMBL document CHEMBL3638589, “Tricyclic derivative or pharmaceutically acceptable salts thereof, preparation method thereof, and pharmaceutical composition containing the same” (2014).

This assay concerns the target Poly [ADP-ribose] polymerase 1 (Homo sapiens, UniProt P09874). Put plainly: Enzyme Inhibitory Assay: The activity of the compounds according to the present invention to inhibit the PARP-1 enzyme was examined using a PARP Assay kit (4671-096-K) purchased from Trevigen. The assay was performed following a modified previously reported method by Lee et al [Methods Find, Exp. Clin. Pharmacol., 27, 617-622, 2005].Histone was coated on 384-well plate, which is a small volume PS plate (784101) of Greiner Bio-One, and left at 25 C. for 2 hours. After that, the plate was rinsed four times with PBS (7.5 mM Na2HPO4, 2.5 mM NaH2PO4, 145 mM NaCl, pH 7.4), and in order to prevent non-specific reaction, the Strep-diluent (provided from kit of Trevigen) was added and left at 25 C. for one hour. After one hour, the plate was again rinsed with PBS four times, and the compounds of the Examples in various concentrations were put into reactant containing PARP-1 enzyme (0.12 unit/well), 2x PARP cocktail.

Sequence of Poly [ADP-ribose] polymerase 1 (P09874 whole entry): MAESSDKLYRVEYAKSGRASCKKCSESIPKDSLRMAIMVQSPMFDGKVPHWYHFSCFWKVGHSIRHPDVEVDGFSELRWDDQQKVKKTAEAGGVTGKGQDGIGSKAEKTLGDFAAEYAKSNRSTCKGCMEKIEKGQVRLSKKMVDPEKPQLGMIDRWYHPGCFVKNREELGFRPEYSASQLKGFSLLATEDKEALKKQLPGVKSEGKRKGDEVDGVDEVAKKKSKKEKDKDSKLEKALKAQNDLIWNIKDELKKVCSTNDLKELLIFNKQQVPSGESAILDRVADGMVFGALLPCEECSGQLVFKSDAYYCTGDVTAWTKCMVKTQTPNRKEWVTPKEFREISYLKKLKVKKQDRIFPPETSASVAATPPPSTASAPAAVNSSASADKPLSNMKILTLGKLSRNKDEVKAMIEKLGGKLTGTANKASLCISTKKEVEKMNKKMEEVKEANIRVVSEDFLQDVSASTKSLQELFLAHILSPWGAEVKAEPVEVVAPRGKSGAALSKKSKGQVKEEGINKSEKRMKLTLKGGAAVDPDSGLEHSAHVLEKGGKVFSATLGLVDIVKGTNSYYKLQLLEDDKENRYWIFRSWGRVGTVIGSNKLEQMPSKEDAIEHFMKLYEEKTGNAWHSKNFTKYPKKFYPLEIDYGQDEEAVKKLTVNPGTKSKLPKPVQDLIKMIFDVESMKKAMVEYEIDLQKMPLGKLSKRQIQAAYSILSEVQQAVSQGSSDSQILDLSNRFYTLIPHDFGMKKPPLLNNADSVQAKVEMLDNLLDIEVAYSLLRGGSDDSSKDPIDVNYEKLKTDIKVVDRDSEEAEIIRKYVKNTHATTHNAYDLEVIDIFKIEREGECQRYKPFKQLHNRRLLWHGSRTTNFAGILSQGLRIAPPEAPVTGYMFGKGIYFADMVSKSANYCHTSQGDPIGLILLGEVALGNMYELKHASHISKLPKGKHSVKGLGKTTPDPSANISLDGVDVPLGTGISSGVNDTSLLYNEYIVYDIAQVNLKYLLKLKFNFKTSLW

In the case of `COc1cc(C[N+](C)(C)C2CCCC2)cc2[nH]c(=O)c3c(c12)NCCC3`, half-maximal inhibition (IC50) was put at 290 nM. `CN(C)Cc1cc(O)c2c3c(c(=O)[nH]c2c1)CCCN3` yielded an IC50 of 750 nM. For `CN(C)CCOc1ccc2c3c(c(=O)[nH]c2c1)CCCN3`, the IC50 came to 1620 nM.
